Assay results reported in patent US20200369728A1, “PEPTIDOMIMETIC MACROCYCLES AND USES THEREOF” (Aileron Therapeutics, Inc., priority 2015, published 2020).
Bridge positions count the residues as written; N and C are the ends. Square brackets hold non-standard residues; d marks the D form. Peptide text beside a SMILES is read from it. R8 = C=CCCCCCC[C@@](C)(N)C(=O)O; Cba = N[C@@H](CC1CCC1)C(=O)O; Chg = N[C@H](C(=O)O)C1CCCCC1; hLeu = CC(C)CC[C@H](N)C(=O)O; S5 = C=CCCC[C@](C)(N)C(=O)O; Nle = CCCC[C@H](N)C(=O)O

Legend:
SJSA-1 cells = experiment: Cell lysis by peptidomimetic macrocycles (LDH release); assay type: cell-based; settings: SJSA-1, 1 h
Method: SJSA-1 cells were plated out one day in advance in clear flat-bottom plates (Costar, catalog number 353072) at 7500 cells/well with 100 ul/well of growth media, leaving row H columns 10-12 empty for media alone. On the day of the assay, media was exchanged with RPMI 1% FBS media, 90 uL of media per well.
10 mM stock solutions of the peptidomimetic macrocycles were prepared in 100% DMSO. Peptidomimetic macrocycles were then diluted serially in 100% DMSO, and then further diluted 20-fold in sterile water to prepare working stock solutions in 5% DMSO/water of each peptidomimetic macrocycle at concentrations ranging from 500 μM to 62.5 μM.
10 μL of each compound was added to the 90 uL of SJSA-1 cells to yield final concentrations of 50 μM to 6.25 μM in 0.5% DMSO-containing media. The negative control (non-lytic) sample was 0.5% DMSO alone and positive control (lytic) samples include 10 μM Melittin and 1% Triton X-100.
Cell plates were incubated for 1 hour at 37° C. After the 1 hour incubation, the morphology of the cells is examined by microscope and then the plates were centrifuged at 1200 rpm for 5 minutes at room temperature. 40 μL of supernatant for each peptidomimetic macrocycle and control sample is transferred to clear assay plates. LDH release is measured using the LDH cytotoxicity assay kit from Caymen, catalog #1000882.

Caspase 3 = Caspase 3 detection assay in SJSA1 cells; assay type: cell-based; settings: SJSA1, 48 h, Caspase 3 activation over DMSO-treated cells

Compound | 6.25 μM % Lysed cells (1 h LDH) (SJSA-1 cells) | 25 μM % Lysed cells (1 h LDH) (SJSA-1 cells) | 50 μM % Lysed cells (1 h LDH) (SJSA-1 cells) | caspase 0.3 μM (Caspase 3) | caspase 3 μM (Caspase 3) | caspase 10 μM (Caspase 3) | caspase 30 μM (Caspase 3)
CC(=O)N[C@@H](CC(C)C)C(=O)N[C@H](C(=O)N[C@@H](Cc1ccccc1)C(=O)N[C@]1(C)CCCCCCC=CCCC[C@@](C)(C(=O)N[C@@H](C)C(=O)N[C@@H](C)C(=O)N[C@@H](Cc2c[nH]c3ccccc23)C(=O)N[C@H](C)C(N)=O)NC(=O)[C@H](CC(C)C)NC(=O)[C@H](CCC(N)=O)NC(=O)[C@H](C)NC(=O)[C@H](Cc2c[nH]c3ccccc23)NC(=O)[C@H](Cc2ccc(O)cc2)NC(=O)[C@H](C)NC1=O)[C@@H](C)O [compound 211] (Ac-LTF[R8]AYWAQL[S5]AAW[dA]-NH2; staple 4-11) | 5% | 3% | 1% | – | – | – | –
CCCC[C@H](NC(=O)[C@H](C)NC(=O)[C@H](C)NC(=O)[C@]1(C)CCCC=CCCCCCC[C@@](C)(NC(=O)[C@H](Cc2ccccc2)NC(=O)[C@@H](NC(=O)[C@H](CC(C)C)NC(C)=O)[C@@H](C)O)C(=O)N[C@@H](C)C(=O)N[C@@H](Cc2ccc(O)cc2)C(=O)N[C@@H](Cc2c[nH]c3ccccc23)C(=O)N[C@@H](Cc2cc(=O)oc3cc(OC)c(OC)cc23)C(=O)N[C@@H](CCC(N)=O)C(=O)N[C@@H](CC(C)C)C(=O)N1)C(=O)N[C@@H](C)C(N)=O [compound 415] | 4% | 2% | 2% | – | – | – | –
CCCC[C@H](NC(=O)[C@H](C)NC(=O)[C@H](CCC(N)=O)NC(=O)[C@H](Cc1c[nH]cn1)NC(=O)[C@]1(C)CCCC=CCCCCCC[C@@](C)(NC(=O)[C@H](Cc2ccccc2)NC(C)=O)C(=O)N[C@@H](C)C(=O)N[C@@H](Cc2ccc(O)cc2)C(=O)N[C@@H](Cc2c[nH]c3ccccc23)C(=O)N[C@@H](CO)C(=O)N[C@@H](C)C(=O)N[C@@H](CC(C)C)C(=O)N1)C(N)=O [compound 39] (Ac-F[R8]AYWSAL[S5]HQA[Nle]-NH2; staple 2-9) | 0% | 0% | 3% | – | – | – | –
CC(=O)N[C@@H](CC(C)C)C(=O)N[C@H](C(=O)N[C@@H](Cc1ccccc1)C(=O)N[C@]1(C)CCCCCCC=CCCC[C@@](C)(C(=O)N[C@@H](CO)C(=O)N[C@@H](C)C(=O)N[C@@H](CCC(C)C)C(N)=O)NC(=O)[C@H](CC(C)C)NC(=O)[C@H](CCC(N)=O)NC(=O)[C@H](C)NC(=O)[C@H](Cc2c[nH]c3ccccc23)NC(=O)[C@H](Cc2ccc(O)cc2)NC(=O)[C@H](C)NC1=O)[C@@H](C)O [compound 6] (Ac-LTF[R8]AYWAQL[S5]SA[hLeu]-NH2; staple 4-11) | 1% | 1% | 1% | – | – | – | –
CCCCCC(=O)N[C@@H](CC(C)C)C(=O)N[C@H](C(=O)N[C@@H](Cc1ccccc1)C(=O)N[C@]1(C)CCCCCCC=CCCC[C@@](C)(C(=O)N[C@@H](CO)C(=O)N[C@@H](C)C(=O)N[C@@H](C)C(N)=O)NC(=O)[C@H](CCC(C)C)NC(=O)[C@H](CCC(N)=O)NC(=O)[C@H](C)NC(=O)[C@H](Cc2c[nH]c3ccccc23)NC(=O)[C@H](Cc2ccc(O)cc2)NC(=O)[C@H](CCC(=O)O)NC1=O)[C@@H](C)O [compound 280] | 5% | 6% | 18% | – | – | – | –
CC[C@H](C)[C@H](NC(=O)[C@H](C)NC(=O)[C@H](C)NC(=O)[C@]1(C)CCCC=CCCCCCC[C@@](C)(NC(=O)[C@H](Cc2ccccc2)NC(=O)[C@@H](NC(=O)[C@H](CCC(=O)O)NC(C)=O)[C@@H](C)O)C(=O)N[C@@H](CCC(=O)O)C(=O)N[C@@H](Cc2c[nH]cn2)C(=O)N[C@@H](Cc2c[nH]c3ccccc23)C(=O)N[C@@H](C)C(=O)N[C@@H](CCC(N)=O)C(=O)N[C@@H](CC(C)C)C(=O)N1)C(=O)N[C@H](C)C(N)=O (single isomer, unassigned) [compound 174] | 5% | 2% | 5% | – | – | – | –
CC(=O)N[C@@H](CC(C)C)C(=O)N[C@H](C(=O)N[C@@H](Cc1ccccc1)C(=O)N[C@]1(C)CCCCCCC=CCCC[C@@](C)(C(=O)N[C@@H](CO)C(=O)N[C@@H](C)C(=O)N[C@H](C(N)=O)C2CCCCC2)NC(=O)[C@H](CC(C)C)NC(=O)[C@H](CCC(N)=O)NC(=O)[C@H](C)NC(=O)[C@H](Cc2c[nH]c3ccccc23)NC(=O)[C@H](Cc2ccc(O)cc2)NC(=O)[C@H](C)NC1=O)[C@@H](C)O [compound 9] (Ac-LTF[R8]AYWAQL[S5]SA[Chg]-NH2; staple 4-11) | −3% | 0% | 2% | – | – | – | –
CC(C)CC[C@@H]1NC(=O)[C@H](CCC(N)=O)NC(=O)[C@H](C)NC(=O)[C@H](Cc2c[nH]c3ccccc23)NC(=O)[C@H](Cc2ccc(O)cc2)NC(=O)[C@H](CCC(=O)O)NC(=O)[C@](C)(NC(=O)[C@H](Cc2ccccc2)NC(=O)[C@@H](NC(=O)[C@H](CC(C)C)NC(=O)CN(C)C)[C@@H](C)O)CCCCCCC=CCCC[C@@](C)(C(=O)N[C@@H](CO)C(=O)N[C@@H](C)C(=O)N[C@@H](C)C(N)=O)NC1=O [compound 279] | 6% | 5% | 6% | – | – | – | –
CC(=O)N[C@@H](CCC(=O)O)C(=O)N[C@H](C(=O)N[C@@H](Cc1ccccc1)C(=O)N[C@]1(C)CCCCCCC=CCCC[C@@](C)(C(=O)N[C@@H](CO)C(=O)N[C@@H](CC(C)C)C(=O)N[C@@H](C)C(N)=O)NC(=O)[C@H](CC(C)C)NC(=O)[C@H](CCC(N)=O)NC(=O)[C@H](C)NC(=O)[C@H](Cc2c[nH]c3ccccc23)NC(=O)[C@H](Cc2ccc(O)cc2)NC(=O)[C@H](C(C)C)NC1=O)[C@@H](C)O [compound 127] (Ac-ETF[R8]VYWAQL[S5]SLA-NH2; staple 4-11) | – | – | – | 1 | 1 | 4 | 13
CC(=O)N[C@@H](CC(C)C)C(=O)N[C@H](C(=O)N[C@@H](Cc1ccccc1)C(=O)N[C@]1(C)CCCCCCC=CCCC[C@@](C)(C(=O)N[C@@H](CO)C(=O)N[C@@H](C)C(=O)N[C@@H](Cc2ccccc2)C(=O)N[C@@H](C)C(N)=O)NC(=O)[C@H](CC2CCC2)NC(=O)[C@H](CCC(N)=O)NC(=O)[C@H](C)NC(=O)[C@H](Cc2c[nH]c3ccccc23)NC(=O)[C@H](Cc2ccc(O)cc2)NC(=O)[C@H](CCC(=O)O)NC1=O)[C@@H](C)O [compound 242] (Ac-LTF[R8]EYWAQ[Cba][S5]SAFA-NH2; staple 4-11) | – | – | – | 1 | 4 | 5 | 18
CCCC[C@H](NC(=O)[C@H](C)NC(=O)[C@H](C)NC(=O)[C@]1(C)CCCC=CCCCCCC[C@@](C)(NC(=O)[C@H](Cc2ccccc2)NC(=O)[C@@H](NC(=O)[C@H](CC(C)C)NC(C)=O)[C@@H](C)O)C(=O)N[C@@H](CCC(=O)O)C(=O)N[C@@H](Cc2ccc(O)cc2)C(=O)N[C@@H](Cc2c[nH]c3ccccc23)C(=O)N[C@@H](C)C(=O)N[C@@H](CCC(N)=O)C(=O)N[C@@H](CC2CCC2)C(=O)N1)C(=O)N[C@@H](C)C(N)=O [compound 238] (Ac-LTF[R8]EYWAQ[Cba][S5]AA[Nle]A-NH2; staple 4-11) | – | – | – | 1 | 2 | 4 | 21
